Key:
Assay type in all cases: cell-based
[1] = test system: Wnt activity (Sp5-Luc reporter, TCF/LEF binding sites) in SW480 colon carcinoma cells; assay: Wnt activity screening assay: Sp5-Luc reporter gene assay in SW480 cells; conditions: Homo sapiens; for EC50: Sp5-Luc reporter, SW480 cells, overnight incubation; for inhibition at 10 µM: SW480, read-out: percent inhibition at 10 μM
How it was run: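 SW480 cells stably carrying a luciferase reporter under a human Sp5 promoter with eight TCF/LEF sites, plated at 4,000 cells/well in 1% FBS medium. Luminescence read with BrightGlo, normalized to DMSO-treated cells; EC50 from four-parameter variable-slope nonlinear regression.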

SW480 colon cancer cells = assay: Cell viability assay (CellTiter-Blue) in SW480 colon cancer cells; conditions: Homo sapiens; for EC50: 96 h, SW480 cell viability, four days, CellTiter-Blue; for inhibition at 10 µM: SW480, read-out: percent inhibition at 10 μM
How it was run: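 Fluorescence from resazurin reduced to resorufin by metabolically active cells was the read-out, taken after ~3 h with CellTiter-Blue.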

[2] = test system: LL29 cells (primary human fibroblasts derived from IPF patients), α-smooth muscle actin; assay: Inhibition of the fibrotic process: αSMA staining in TGF-β1 treated primary human fibroblasts from IPF patients (LL29 cells); conditions: Fibroblast; for EC50: 96 h, LL29 cells, TGF-β1 20 ng/mL, 4 days, % αSMA positive cells; for inhibition at 10 µM: read-out: percent inhibition at 10 μM
How it was run: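 IPF-patient-derived LL29 lung fibroblasts in F12 with 1% FBS, stimulated with TGF-β1 alongside compound; TGF-β1 plus DMSO wells served as controls. After 4 days, nuclei stained with 1 μM SYTOX green for 30 min at room temperature, alongside αSMA staining.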

[3] = test system: primary human mesenchymal stem cells (hMSCs); assay: Induction of chondrogenesis in primary human mesenchymal stem cells (chondrogenic nodules, Rhodamine B / Nile Red); conditions: 6 days; for EC50: concentration required to induce 50% levels of chondrogenesis vs TGF-β3, read-out: Conc (nM) of 50% TGF-β3 activity; for Emax: relative to TGF-β3 (10 ng/mL) positive control, read-out: Max. Activity as % TGF-β3 activity
Excerpt: Representative compounds were screened using primary human mesenchymal stem cells (hMSCs) to determine their ability to induce chondrogenesis (process by which cartilage is developed).
Human Mesenchymal Stem Cell Culture: Primary human mesenchymal stem cells (hMSCs) were purchased from Lonza (Walkersville, Md.) and expanded in Mesenchymal Stem Cell Growth Media (Lonza). Cells between passage 3 and 6 were used for the experiments.
To image chondrogenic nodules, the cells were fixed using 4% formaldehyde (Electron Microscopy Sciences), and stained with 2 μg/mL Rhodamine B (Sigma-Aldrich) and 20 μM Nile Red (Sigma-Aldrich) [Johnson K., et. al, A Stem Cell-Based Approach to Cartilage Repair, Science, (2012). […] Number of nodules in each well was normalized to the average of 3 DMSO treated wells on the same plate using Excel (Microsoft Inc.). The normalized averages (fold change over DMSO) of 3 replicate wells for each compound concentration were calculated. Due to solubility limitations of some of the compounds, curve fitting was incomplete leading to inaccurate EC50 determinations.
Using TGF-β3 as a positive control, the concentration of representative compounds required to induce 50% levels of chondrogenesis is reported. In addition, the maximum activity of each compound and the respective dose that each compound reached maximum chondrogenesis activity is reported.

IL-6 in THP-1 cells = assay: IL-6 inhibition in LPS-stimulated THP-1 human monocyte cells (HTRF); conditions: for EC50: IL-6 inhibition, LPS-stimulated THP-1 cells, HTRF, 10-point dose-response starting from 10 μM; for inhibition at 10 µM: THP-1, read-out: percentage in parentheses beside EC50 >10
How it was run: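 THP-1 cells were serum-reduced (1% FBS, 24 h), plated at 5000 cells/well with compound for 2 h at 37 °C, then stimulated 22 h with 500 ng/mL LPS. Secreted IL-6 was quantified by HTRF (665/620 nm ratio). Signals were normalised to DMSO, and EC50 was fitted by four-parameter nonlinear regression.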

| SMILES | EC50 [1] [µM] | EC50 (SW480 colon cancer cells) [nM] | EC50 [3] [nM] | EC50 (IL-6 in THP-1 cells) [nM] | EC50 [2] [nM] | Emax [3] [%] | inhibition at 10 µM [2] [%] | inhibition at 10 µM (IL-6 in THP-1 cells) [%] | inhibition at 10 µM [1] [%] | inhibition at 10 µM (SW480 colon cancer cells) [%] |
| --- | --- | --- | --- | --- | --- | --- | --- | --- | --- | --- |
| Fc1ccccc1-c1nccc2[nH]c(-c3n[nH]c4ncc(-c5cncnc5)cc34)cc12 [Compound 83, 3-(4-(2-Fluorophenyl)-1H-pyrrolo[3,2-c]pyridin-2-yl)-5-(pyrimidin-5-yl)-1H-pyrazolo[3,4-b]pyridine] | 4.06 | 2080 | – | > 10000 | 1210 | 36 | – | 28.3 | – | – |
| Nc1cncc(-c2cnc3[nH]nc(-c4cc5c(-c6ccncc6)nccc5[nH]4)c3c2)c1 [Compound 115, 5-(3-(4-(Pyridin-4-yl)-1H-pyrrolo[3,2-c]pyridin-2-yl)-1H-pyrazolo[3,4-b]pyridin-5-yl)pyridin-3-amine] | > 10 | > 10000 | 30 | > 10000 | > 10000 | 53 | 53.8 | 9.7 | 9.3 | 10.1 |
| c1cncc(-c2cnc3[nH]nc(-c4cc5c(N6CCCCC6)nccc5[nH]4)c3c2)c1 [Compound 172, 3-(4-(Piperidin-1-yl)-1H-pyrrolo[3,2-c]pyridin-2-yl)-5-(pyridin-3-yl)-1H-pyrazolo[3,4-b]pyridine] | 4.02 | 1160 | 900 | 484 | 1330 | 169 | – | – | – | – |
| CC(C)Nc1cncc(-c2cnc3[nH]nc(-c4cc5c(N6CCCCC6)nccc5[nH]4)c3c2)c1 [Compound 180, N-Isopropyl-5-(3-(4-(piperidin-1-yl)-1H-pyrrolo[3,2-c]pyridin-2-yl)-1H-pyrazolo[3,4-b]pyridin-5-yl)pyridin-3-amine] | 3.41 | 3700 | – | 2130 | 247 | 34 | – | – | – | – |
| c1cc2[nH]c(-c3n[nH]c4ncc(-c5cncc(CN6CCCCC6)c5)cc34)cc2c(N2CCCCC2)n1 [Compound 183, 3-(4-(Piperidin-1-yl)-1H-pyrrolo[3,2-c]pyridin-2-yl)-5-(5-(piperidin-1-ylmethyl)pyridin-3-yl)-1H-pyrazolo[3,4-b]pyridine] | 3.85 | 827 | 900 | 4800 | 1220 | 62 | – | – | – | – |
| O=C(Nc1cncc(-c2cnc3[nH]nc(-c4cc5c(N6CCCCC6)nccc5[nH]4)c3c2)c1)C1CC1 [Compound 188, N-(5-(3-(4-(Piperidin-1-yl)-1H-pyrrolo[3,2-c]pyridin-2-yl)-1H-pyrazolo[3,4-b]pyridin-5-yl)pyridin-3-yl)cyclopropanecarboxamide] | 3.85 | 6710 | – | 2540 | > 10000 | 42 | 0 | – | – | – |
| CC(C)CC(=O)Nc1cncc(-c2cnc3[nH]nc(-c4cc5c(N6CCN(C)CC6)nccc5[nH]4)c3c2)c1 [Compound 226, 3-Methyl-N-(5-(3-(4-(4-methylpiperazin-1-yl)-1H-pyrrolo[3,2-c]pyridin-2-yl)-1H-pyrazolo[3,4-b]pyridin-5-yl)pyridin-3-yl)butanamide] | 3.41 | > 10000 | – | 141 | > 10000 | 99 | 0 | – | – | 57.6 |
| CN1CCN(c2nccc3[nH]c(-c4n[nH]c5ncc(-c6cncc(N)c6)cc45)cc23)CC1 [Compound 227, 5-(3-(4-(4-Methylpiperazin-1-yl)-1H-pyrrolo[3,2-c]pyridin-2-yl)-1H-pyrazolo[3,4-b]pyridin-5-yl)pyridin-3-amine] | > 10 | > 10000 | – | 707 | > 10000 | 18 | 0 | – | 28.1 | 14.4 |
| CC(C)C(=O)Nc1cncc(-c2cnc3[nH]nc(-c4cc5c(N6CCN(C)CC6)nccc5[nH]4)c3c2)c1 [Compound 233, N-(5-(3-(4-(4-Methylpiperazin-1-yl)-1H-pyrrolo[3,2-c]pyridin-2-yl)-1H-pyrazolo[3,4-b]pyridin-5-yl)pyridin-3-yl)isobutyramide] | > 10 | > 10000 | 30 | 611 | > 10000 | 62 | 34 | – | 19.5 | 10.7 |
| CN1CCN(c2nccc3[nH]c(-c4n[nH]c5ncc(-c6cncc(CN7CCCCC7)c6)cc45)cc23)CC1 [Compound 239, 3-(4-(4-Methylpiperazin-1-yl)-1H-pyrrolo[3,2-c]pyridin-2-yl)-5-(5-(piperidin-1-ylmethyl)pyridin-3-yl)-1H-pyrazolo[3,4-b]pyridine] | > 10 | 3800 | – | 3280 | > 10000 | 24 | 28.8 | – | 55 | – |
| CN1CCN(c2nccc3[nH]c(-c4n[nH]c5ncc(-c6cncc(NC(=O)C7CCCC7)c6)cc45)cc23)CC1 [Compound 246, N-(5-(3-(4-(4-Methylpiperazin-1-yl)-1H-pyrrolo[3,2-c]pyridin-2-yl)-1H-pyrazolo[3,4-b]pyridin-5-yl)pyridin-3-yl)cyclopentane carboxamide] | > 10 | > 10000 | – | 2150 | 6460 | 30 | – | – | 43 | 15.4 |

Now those with a lower EC50 [1], led by results:

| EC50 [1] [µM] | EC50 (SW480 colon cancer cells) [nM] | EC50 [3] [nM] | EC50 (IL-6 in THP-1 cells) [nM] | SMILES | EC50 [2] [nM] | Emax [3] [%] | inhibition at 10 µM [2] [%] | inhibition at 10 µM (IL-6 in THP-1 cells) [%] | inhibition at 10 µM [1] [%] | inhibition at 10 µM (SW480 colon cancer cells) [%] |
| --- | --- | --- | --- | --- | --- | --- | --- | --- | --- | --- |
| 0.321 | 450 | 30 | 53 | O=C(Nc1cncc(-c2cnc3[nH]nc(-c4cc5c(-c6ccccc6F)nccc5[nH]4)c3c2)c1)C1CC1 [Compound 76, N-(5-(3-(4-(2-Fluorophenyl)-1H-pyrrolo[3,2-c]pyridin-2-yl)-1H-pyrazolo[3,4-b]pyridin-5-yl)pyridin-3-yl)cyclopropanecarboxamide] | 2700 | 78 | – | – | – | – |
| 0.96 | 651 | – | 505 | O=C(Nc1cncc(-c2cnc3[nH]nc(-c4cc5c(-c6ccccc6F)nccc5[nH]4)c3c2)c1)C1CCCC1 [Compound 78, N-(5-(3-(4-(2-Fluorophenyl)-1H-pyrrolo[3,2-c]pyridin-2-yl)-1H-pyrazolo[3,4-b]pyridin-5-yl)pyridin-3-yl)cyclopentanecarboxamide] | > 10000 | 51 | 12.7 | – | – | – |
| 1.33 | 1430 | – | 2260 | CC(C)(C)CC(=O)Nc1cncc(-c2cnc3[nH]nc(-c4cc5c(N6CCCCC6)nccc5[nH]4)c3c2)c1 [Compound 184, 3,3-Dimethyl-N-(5-(3-(4-(piperidin-1-yl)-1H-pyrrolo[3,2-c]pyridin-2-yl)-1H-pyrazolo[3,4-b]pyridin-5-yl)pyridin-3-yl)butanamide] | 773 | 84 | – | – | – | – |
| 3.24 | > 10000 | – | 6980 | CN1CCN(c2nccc3[nH]c(-c4n[nH]c5ncc(-c6cncc(NC(=O)c7ccccc7)c6)cc45)cc23)CC1 [Compound 235, N-(5-(3-(4-(4-Methylpiperazin-1-yl)-1H-pyrrolo[3,2-c]pyridin-2-yl)-1H-pyrazolo[3,4-b]pyridin-5-yl)pyridin-3-yl)benzamide] | 891 | 63 | – | – | – | 19.1 |
| 0.96 | > 10000 | – | 1000 | CCC(=O)Nc1cncc(-c2cnc3[nH]nc(-c4cc5cnccc5[nH]4)c3c2)c1 [Compound 253, N-(5-(3-(1H-Pyrrolo[3,2-c]pyridin-2-yl)-1H-pyrazolo[3,4-b]pyridin-5-yl)pyridin-3-yl)propionamide] | 3710 | 17 | – | – | – | 50.3 |
| 0.251 | 356 | – | 218 | c1cncc(-c2cnc3[nH]nc(-c4cc5cnccc5[nH]4)c3c2)c1 [Compound 256, 5-(Pyridin-3-yl)-3-(1H-pyrrolo[3,2-c]pyridin-2-yl)-1H-pyrazolo[3,4-b]pyridine] | 200 | 54 | – | – | – | – |
